Calls of active or inactive are those of the source.
What was measured:
[1] = biological target: T1, Epstein-Barr nuclear antigen 1 (Epstein-Barr virus (strain B95-8) (HHV-4) (Human herpesvirus 4), UniProt P03211); experiment: inhibition of EBV nuclear antigen 1 DNA binding – biochemical, fluorescence polarization, 1536-well, dose response (AID 2381); set-up: species or system human gammaherpesvirus 4;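 note: fluorescence polarization of a Cy5 DNA probe bound by EBNA-1 protein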
T1 sequence (P03211 whole entry): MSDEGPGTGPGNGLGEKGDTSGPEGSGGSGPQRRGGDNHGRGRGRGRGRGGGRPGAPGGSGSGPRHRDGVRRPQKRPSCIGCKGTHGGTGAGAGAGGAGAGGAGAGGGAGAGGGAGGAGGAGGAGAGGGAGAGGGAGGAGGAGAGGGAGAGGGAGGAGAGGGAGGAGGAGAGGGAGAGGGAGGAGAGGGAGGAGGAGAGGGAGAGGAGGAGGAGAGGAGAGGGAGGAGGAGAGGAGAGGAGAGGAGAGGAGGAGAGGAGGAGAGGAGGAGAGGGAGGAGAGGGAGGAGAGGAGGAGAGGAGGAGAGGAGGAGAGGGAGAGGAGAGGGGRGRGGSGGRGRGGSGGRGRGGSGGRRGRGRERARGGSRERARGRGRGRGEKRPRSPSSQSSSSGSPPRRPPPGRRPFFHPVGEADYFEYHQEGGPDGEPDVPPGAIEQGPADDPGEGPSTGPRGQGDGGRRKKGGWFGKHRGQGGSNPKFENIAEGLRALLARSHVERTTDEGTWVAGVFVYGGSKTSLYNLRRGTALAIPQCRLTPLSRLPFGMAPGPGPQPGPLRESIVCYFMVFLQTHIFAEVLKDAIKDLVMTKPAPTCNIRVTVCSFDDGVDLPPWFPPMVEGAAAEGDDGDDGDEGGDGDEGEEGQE

[2] = biological target: T2, Lytic switch protein BZLF1 (Epstein-Barr virus (strain B95-8) (HHV-4) (Human herpesvirus 4), UniProt P03206); experiment: inhibition of BZLF1 ZTA DNA binding – biochemical, fluorescence polarization, Epstein-Barr virus, 1536-well, counter-screen for EBNA-1 inhibitor project, dose response (AID 2377); set-up: species or system human gammaherpesvirus 4;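 note: fluorescence polarization of Cy5-labelled ZRE DNA probe bound by purified Zta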
T2 sequence (P03206 whole entry): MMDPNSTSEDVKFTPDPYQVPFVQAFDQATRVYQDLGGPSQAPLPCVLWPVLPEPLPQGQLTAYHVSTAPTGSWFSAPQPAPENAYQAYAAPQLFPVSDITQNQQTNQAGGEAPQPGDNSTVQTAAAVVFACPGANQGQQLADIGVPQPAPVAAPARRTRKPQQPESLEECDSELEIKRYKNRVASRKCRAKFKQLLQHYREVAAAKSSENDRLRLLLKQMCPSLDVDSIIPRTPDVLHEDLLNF

Cytochrome P450 2D6 = Cytochrome P450 2D6 (Homo sapiens, UniProt P10635); experiment: qHTS Assay for Inhibitors and Substrates of Cytochrome P450 2D6. [Related pubchem assays: 410 ]; type: ADME; conditions: read-out: Potency
[3] = biological target: T3, Scavenger receptor class B member 1 (Mus musculus, UniProt Q61009); experiment: mouse SR-BI DiI-HDL uptake blockers – ldlA[mSR-BI] cells, fluorescence, cherry pick, dose response (AID 493194); type: functional, cell-based;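 note: cellular uptake of fluorescent DiI-labeled HDL measured as cell fluorescence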
T3 sequence (Q61009 whole entry): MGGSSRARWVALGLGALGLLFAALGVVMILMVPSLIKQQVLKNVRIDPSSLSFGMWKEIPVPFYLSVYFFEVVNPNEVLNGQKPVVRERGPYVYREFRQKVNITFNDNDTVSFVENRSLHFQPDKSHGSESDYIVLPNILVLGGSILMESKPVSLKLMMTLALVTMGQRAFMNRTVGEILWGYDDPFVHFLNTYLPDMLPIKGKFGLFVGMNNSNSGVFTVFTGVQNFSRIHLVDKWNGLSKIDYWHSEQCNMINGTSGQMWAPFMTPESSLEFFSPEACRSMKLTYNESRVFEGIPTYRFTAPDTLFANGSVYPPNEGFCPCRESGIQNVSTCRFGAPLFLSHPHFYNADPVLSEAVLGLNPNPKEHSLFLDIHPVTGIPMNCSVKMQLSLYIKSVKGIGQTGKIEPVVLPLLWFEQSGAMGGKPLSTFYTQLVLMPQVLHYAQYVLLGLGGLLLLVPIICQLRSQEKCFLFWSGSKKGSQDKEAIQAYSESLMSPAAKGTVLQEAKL

Mucolipin-3 = biological target: T4, Mucolipin-3 (Homo sapiens, UniProt Q8TDD5); experiment: Dose response cell-based high-throughput screening assay for agonists of the transient receptor potential channel ML3 (TRPML3). [Related pubchem assays: 1526, 1424, 1448 ]; type: functional
T4 sequence (Q8TDD5 whole entry): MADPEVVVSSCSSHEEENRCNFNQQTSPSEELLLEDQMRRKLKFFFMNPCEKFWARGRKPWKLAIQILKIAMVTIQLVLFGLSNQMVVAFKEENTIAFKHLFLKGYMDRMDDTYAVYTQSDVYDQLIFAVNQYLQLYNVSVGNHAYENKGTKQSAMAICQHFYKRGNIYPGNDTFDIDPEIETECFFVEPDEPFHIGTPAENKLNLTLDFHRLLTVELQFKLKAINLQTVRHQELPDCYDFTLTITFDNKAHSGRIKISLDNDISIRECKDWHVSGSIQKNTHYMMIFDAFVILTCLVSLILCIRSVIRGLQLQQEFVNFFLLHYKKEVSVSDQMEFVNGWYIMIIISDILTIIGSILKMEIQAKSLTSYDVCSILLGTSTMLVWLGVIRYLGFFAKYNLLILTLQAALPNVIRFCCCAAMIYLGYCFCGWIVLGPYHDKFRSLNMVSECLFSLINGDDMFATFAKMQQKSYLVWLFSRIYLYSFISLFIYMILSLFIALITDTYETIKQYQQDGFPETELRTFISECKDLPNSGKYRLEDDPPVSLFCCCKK

Ion channel NompC = Ion channel NompC (Danio rerio, UniProt Q7T1G6); experiment: Fluorescence counterscreen assay for TRPML3 agonists: dose response cell-based high-throughput screening assay to identify agonists of the transient receptor potential channel N1 (TRPN1). [Related pubchem assays: 1526, 1424, 1448 ]; type: functional
Cytochrome P450 3A4 = Cytochrome P450 3A4 (Homo sapiens, UniProt P08684); conditions: Potency;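 note: confirmatory qHTS run detecting inhibitors and substrates of CYP3A4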
Cytochrome P450 2C9 = Cytochrome P450 2C9 (Homo sapiens, UniProt P11712); conditions: Potency
[4] = Trypanosoma cruzi growth suppression in host cells – NIH3T3 host cells, beta-gal luminescence, confirmation (AID 2044); type: functional, cell-based;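 note: intracellular parasites grown in NIH/3T3 mouse fibroblasts as host cells; luminescent beta-galactosidase reporter signal from transgenic T. cruzi replicating inside host cells; inhibitors lower the luminescence signal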
[5] = NIH3T3 cell viability loss – ATP luminescence, mouse fibroblasts, counter-screen, dose response (AID 2010); type: functional, cell-based;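 note: cells exposed to compound for about 90 hours before reading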
[6] = biological target: Protein-tyrosine kinase 2-beta (Homo sapiens, UniProt Q14289);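 note: potency of inhibitors of PYK2 kinase phosphorylation of poly-GT substrate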
[7] = biological target: FAD-linked sulfhydryl oxidase ALR (Homo sapiens, UniProt P55789); experiment: ALR-catalysed DTT oxidation blockers – biochemical, H2O2 detection, luminescence, cherry-pick, dose response (AID 493248)
[8] = biological target: Glyceraldehyde-3-phosphate dehydrogenase (Homo sapiens, UniProt P04406)
Bcl-2-related protein A1 [9] = biological target: T5, Bcl-2-related protein A1 (Mus musculus, UniProt Q07440); experiment: small-molecule antagonists of Bfl-1/BH3 interaction – biochemical, TR-FRET, mouse Bfl-1, confirmation (AID 621);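 note: TR-FRET binding of GST-Bfl-1 to FITC-labelled Bid peptide via terbium antibody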
T5 sequence (Q07440 whole entry): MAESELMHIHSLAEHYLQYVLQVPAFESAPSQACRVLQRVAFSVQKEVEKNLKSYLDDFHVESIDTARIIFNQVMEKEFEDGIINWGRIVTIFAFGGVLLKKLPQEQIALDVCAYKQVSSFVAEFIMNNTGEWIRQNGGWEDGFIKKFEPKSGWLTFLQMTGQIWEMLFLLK

Bcl-2-related protein A1 [10] = biological target: T5, Bcl-2-related protein A1; experiment: Bfl-1 binding inhibitors, SAR follow-up, biochemical, fluorescence polarization (AID 1070)
[11] = biological target: T6, Replicative DNA helicase DnaB (Mycobacterium tuberculosis, UniProt P9WMR3); experiment: DnaB intein splicing inhibitors, dose response, biochemical, cell-free fluorescence (AID 449749); type: functional
T6 sequence (P9WMR3 whole entry): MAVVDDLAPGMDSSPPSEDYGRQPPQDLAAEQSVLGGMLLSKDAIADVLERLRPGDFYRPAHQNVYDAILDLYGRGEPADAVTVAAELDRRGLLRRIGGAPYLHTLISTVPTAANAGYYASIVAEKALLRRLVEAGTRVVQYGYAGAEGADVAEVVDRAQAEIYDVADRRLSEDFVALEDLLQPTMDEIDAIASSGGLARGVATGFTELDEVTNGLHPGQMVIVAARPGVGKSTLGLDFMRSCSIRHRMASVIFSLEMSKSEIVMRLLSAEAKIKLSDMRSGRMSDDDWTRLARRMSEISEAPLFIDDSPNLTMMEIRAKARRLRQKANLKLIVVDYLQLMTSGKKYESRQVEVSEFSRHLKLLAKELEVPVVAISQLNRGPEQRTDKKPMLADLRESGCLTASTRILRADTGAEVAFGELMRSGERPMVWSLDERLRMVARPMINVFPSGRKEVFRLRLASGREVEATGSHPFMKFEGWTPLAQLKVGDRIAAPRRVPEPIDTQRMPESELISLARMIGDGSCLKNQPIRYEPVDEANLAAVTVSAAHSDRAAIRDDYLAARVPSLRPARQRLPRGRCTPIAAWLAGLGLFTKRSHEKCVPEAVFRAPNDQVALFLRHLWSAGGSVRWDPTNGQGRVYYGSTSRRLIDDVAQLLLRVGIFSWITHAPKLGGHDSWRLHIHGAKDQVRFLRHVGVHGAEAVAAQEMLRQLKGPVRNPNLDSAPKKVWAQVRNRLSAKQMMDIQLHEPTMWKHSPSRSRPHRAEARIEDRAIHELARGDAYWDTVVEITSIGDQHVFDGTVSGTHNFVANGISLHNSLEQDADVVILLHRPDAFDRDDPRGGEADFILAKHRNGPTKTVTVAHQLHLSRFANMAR

Protein RecA = biological target: T7, Protein RecA (Mycobacterium tuberculosis, UniProt P9WHJ3); experiment: Fluorescence Cell-Free Homogeneous Dose Retest to Identify Inhibitors of RecA-Intein Splicing Activity. [Related pubchem assays (depositor defined):AID2097, AID2223, AID489010, AID492950]; type: functional
T7 sequence (P9WHJ3 whole entry): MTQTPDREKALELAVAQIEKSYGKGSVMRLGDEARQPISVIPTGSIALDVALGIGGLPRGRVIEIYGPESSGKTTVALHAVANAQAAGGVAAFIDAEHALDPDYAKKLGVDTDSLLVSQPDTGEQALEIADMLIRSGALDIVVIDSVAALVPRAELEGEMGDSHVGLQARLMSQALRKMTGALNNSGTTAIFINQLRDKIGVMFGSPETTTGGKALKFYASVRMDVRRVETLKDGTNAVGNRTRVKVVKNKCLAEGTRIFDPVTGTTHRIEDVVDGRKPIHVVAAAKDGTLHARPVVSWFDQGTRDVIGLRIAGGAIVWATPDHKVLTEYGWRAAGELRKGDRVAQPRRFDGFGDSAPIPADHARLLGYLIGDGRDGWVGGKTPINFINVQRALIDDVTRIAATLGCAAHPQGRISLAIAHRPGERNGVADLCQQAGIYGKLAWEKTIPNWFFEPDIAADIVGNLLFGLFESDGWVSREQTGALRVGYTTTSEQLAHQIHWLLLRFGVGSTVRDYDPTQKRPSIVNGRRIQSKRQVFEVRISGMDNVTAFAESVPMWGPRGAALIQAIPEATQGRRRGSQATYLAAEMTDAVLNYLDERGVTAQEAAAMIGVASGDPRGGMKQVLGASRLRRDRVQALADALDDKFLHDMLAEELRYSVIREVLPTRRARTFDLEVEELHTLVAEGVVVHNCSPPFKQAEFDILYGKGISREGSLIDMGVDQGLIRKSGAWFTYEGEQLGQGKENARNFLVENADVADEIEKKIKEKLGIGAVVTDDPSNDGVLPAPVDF

Genome polyprotein = Genome polyprotein (dengue virus type 2, UniProt P29990); experiment: flavivirus cap methylation enzyme inhibition – biochemical, confirmation dose response, primary screen (AID 588689); type: functional

Chain of Ion channel NompC (Q7T1G6 whole entry): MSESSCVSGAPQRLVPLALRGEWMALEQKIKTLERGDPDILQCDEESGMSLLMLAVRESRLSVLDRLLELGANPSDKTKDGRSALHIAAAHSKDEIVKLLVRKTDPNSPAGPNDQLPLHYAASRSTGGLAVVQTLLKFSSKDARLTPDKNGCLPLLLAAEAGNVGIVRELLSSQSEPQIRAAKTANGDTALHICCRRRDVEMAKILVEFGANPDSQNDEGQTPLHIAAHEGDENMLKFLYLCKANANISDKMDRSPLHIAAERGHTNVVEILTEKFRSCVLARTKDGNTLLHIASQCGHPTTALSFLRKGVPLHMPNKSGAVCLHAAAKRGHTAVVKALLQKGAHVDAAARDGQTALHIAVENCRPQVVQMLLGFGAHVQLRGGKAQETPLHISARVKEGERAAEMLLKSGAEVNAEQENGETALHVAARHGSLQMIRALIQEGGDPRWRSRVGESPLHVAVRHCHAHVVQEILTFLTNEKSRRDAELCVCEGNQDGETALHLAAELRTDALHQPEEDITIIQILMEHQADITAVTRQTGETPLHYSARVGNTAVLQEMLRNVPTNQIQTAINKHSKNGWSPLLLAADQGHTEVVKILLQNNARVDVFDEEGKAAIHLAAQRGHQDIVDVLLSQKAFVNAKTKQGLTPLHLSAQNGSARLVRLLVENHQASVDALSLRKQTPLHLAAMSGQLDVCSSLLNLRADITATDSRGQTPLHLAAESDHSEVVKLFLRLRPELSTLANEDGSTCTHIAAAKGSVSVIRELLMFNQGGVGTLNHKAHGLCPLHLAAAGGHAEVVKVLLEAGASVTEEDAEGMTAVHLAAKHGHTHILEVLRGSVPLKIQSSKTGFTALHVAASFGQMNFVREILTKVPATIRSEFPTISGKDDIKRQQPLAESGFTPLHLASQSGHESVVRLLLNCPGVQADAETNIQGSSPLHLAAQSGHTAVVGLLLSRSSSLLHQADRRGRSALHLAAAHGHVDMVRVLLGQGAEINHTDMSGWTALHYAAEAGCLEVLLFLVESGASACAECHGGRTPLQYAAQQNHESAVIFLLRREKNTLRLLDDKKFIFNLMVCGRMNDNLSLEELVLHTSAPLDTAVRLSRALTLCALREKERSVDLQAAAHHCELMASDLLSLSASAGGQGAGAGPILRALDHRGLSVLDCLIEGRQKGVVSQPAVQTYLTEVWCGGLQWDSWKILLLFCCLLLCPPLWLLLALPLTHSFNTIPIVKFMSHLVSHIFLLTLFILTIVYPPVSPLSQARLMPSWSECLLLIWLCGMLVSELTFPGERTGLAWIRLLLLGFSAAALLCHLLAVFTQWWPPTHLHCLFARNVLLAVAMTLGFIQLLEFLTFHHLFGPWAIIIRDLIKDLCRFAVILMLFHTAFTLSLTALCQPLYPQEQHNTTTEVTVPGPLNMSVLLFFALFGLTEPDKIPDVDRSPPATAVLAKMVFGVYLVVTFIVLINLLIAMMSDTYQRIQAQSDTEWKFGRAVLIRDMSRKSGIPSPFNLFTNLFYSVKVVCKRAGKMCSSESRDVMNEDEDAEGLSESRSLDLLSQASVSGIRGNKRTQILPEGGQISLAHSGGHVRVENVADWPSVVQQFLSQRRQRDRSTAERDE
Chain of Cytochrome P450 2D6 (P10635 whole entry): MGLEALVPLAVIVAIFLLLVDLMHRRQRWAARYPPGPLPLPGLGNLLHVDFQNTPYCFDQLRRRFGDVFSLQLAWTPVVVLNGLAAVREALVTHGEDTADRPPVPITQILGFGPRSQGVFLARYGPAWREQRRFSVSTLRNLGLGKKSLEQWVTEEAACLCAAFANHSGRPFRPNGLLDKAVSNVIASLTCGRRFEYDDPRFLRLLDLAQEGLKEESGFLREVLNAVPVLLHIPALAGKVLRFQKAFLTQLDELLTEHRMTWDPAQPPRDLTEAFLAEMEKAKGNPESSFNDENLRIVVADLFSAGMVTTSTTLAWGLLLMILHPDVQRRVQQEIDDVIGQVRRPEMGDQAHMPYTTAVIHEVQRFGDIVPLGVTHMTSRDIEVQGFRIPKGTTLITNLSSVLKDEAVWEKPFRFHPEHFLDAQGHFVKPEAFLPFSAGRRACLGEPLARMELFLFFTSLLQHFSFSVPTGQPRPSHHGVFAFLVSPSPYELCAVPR
Chain of Protein-tyrosine kinase 2-beta (Q14289 whole entry): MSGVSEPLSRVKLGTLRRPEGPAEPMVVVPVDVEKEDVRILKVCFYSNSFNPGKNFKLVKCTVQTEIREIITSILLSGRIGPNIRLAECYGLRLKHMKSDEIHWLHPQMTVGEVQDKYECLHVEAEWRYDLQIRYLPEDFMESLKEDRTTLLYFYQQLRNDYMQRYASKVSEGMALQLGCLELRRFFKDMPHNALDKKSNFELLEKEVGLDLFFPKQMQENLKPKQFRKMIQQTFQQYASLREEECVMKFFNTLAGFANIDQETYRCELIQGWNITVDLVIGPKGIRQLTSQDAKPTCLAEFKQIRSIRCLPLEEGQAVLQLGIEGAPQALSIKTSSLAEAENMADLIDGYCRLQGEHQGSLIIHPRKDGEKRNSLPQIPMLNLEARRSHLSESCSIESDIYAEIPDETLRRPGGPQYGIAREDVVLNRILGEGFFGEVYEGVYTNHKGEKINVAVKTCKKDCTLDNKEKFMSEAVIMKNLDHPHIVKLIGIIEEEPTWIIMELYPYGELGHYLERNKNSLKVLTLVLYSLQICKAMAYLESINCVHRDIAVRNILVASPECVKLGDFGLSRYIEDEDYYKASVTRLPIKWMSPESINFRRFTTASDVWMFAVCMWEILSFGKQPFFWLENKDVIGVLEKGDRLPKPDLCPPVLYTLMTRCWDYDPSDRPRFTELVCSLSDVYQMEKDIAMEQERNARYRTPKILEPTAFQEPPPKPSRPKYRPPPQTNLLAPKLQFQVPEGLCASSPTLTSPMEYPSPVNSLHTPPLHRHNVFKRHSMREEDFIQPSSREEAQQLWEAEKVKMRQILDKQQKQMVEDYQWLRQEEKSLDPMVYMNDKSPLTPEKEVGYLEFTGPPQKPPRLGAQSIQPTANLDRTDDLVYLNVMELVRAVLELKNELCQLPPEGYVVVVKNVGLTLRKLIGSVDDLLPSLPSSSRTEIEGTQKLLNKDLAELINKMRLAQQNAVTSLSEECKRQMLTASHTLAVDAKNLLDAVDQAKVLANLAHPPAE
Chain of Cytochrome P450 2C9 (P11712 whole entry): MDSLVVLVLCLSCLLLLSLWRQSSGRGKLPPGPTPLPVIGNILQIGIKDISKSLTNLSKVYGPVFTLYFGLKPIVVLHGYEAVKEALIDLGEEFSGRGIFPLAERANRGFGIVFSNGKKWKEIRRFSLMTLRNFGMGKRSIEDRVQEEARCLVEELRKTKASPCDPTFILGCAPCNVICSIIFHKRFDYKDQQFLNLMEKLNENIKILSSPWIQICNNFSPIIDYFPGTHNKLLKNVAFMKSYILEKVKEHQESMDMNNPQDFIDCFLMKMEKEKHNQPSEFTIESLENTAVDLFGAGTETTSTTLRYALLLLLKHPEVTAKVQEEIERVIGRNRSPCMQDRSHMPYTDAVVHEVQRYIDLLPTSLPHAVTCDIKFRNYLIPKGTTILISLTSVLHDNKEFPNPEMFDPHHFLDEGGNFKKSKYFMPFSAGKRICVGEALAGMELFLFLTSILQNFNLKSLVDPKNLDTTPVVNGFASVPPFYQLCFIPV
Chain of FAD-linked sulfhydryl oxidase ALR (P55789 whole entry): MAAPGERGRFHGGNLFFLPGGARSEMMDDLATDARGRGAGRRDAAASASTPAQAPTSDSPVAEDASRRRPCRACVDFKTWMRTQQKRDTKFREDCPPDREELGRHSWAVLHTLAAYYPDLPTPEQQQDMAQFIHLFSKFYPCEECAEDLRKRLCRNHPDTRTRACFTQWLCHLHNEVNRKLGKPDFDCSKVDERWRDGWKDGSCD
Chain of Cytochrome P450 3A4 (P08684 whole entry): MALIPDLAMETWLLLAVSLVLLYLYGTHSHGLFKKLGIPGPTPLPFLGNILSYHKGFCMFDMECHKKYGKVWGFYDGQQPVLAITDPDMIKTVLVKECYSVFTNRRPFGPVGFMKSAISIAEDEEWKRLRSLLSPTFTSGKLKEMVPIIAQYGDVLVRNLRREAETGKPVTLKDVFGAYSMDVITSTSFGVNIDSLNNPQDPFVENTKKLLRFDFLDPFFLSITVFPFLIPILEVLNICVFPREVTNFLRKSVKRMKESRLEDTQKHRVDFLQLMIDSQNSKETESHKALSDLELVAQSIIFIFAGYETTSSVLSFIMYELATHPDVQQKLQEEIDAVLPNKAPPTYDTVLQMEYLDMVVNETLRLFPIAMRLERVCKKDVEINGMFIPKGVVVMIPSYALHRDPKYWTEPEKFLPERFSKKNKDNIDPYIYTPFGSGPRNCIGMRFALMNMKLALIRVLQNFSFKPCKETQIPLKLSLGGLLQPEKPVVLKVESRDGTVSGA
Chain of Glyceraldehyde-3-phosphate dehydrogenase (P04406 whole entry): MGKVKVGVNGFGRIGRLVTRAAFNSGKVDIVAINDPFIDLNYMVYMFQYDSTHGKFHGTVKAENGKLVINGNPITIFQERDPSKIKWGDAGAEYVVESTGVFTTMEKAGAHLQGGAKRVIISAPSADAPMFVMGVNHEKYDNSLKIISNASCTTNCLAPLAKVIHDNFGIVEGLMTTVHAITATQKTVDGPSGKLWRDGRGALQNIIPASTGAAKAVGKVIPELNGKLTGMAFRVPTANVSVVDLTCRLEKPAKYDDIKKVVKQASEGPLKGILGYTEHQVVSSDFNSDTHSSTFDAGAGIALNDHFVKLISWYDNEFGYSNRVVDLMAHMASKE

O=C(Nc1cccc(-c2nnc(-c3ccccc3)o2)c1)C1CCCCC1
IC50 [1]: 6.03 µM (active) | IC50 [2]: > 111 µM (not active)

COc1ccc(/C=C2/NC(=O)N(CC(=O)Nc3cccc(C)c3)C2=O)cc1O
IC50 [1]: 9.14 µM (active) | IC50 [2]: > 111 µM (not active)

CCCCCCCCCCCCC/C=C\[C@H](O)[C@H](N)CO
AC50 (Cytochrome P450 2D6): 12.6 µM (inconclusive)

CCOc1ccc(NC(=O)CN2CCN(CC(=O)Nc3cc(OC)cc(OC)c3)CC2)cc1
AC50 [3]: 0.414 µM (active)

Cc1cc(C)cc(N(CC(=O)N2CCOCC2)S(=O)(=O)c2ccccc2)c1
EC50 (Mucolipin-3): 3.71 µM (active) | EC50 (Ion channel NompC): > 29.9 µM (not active)

C=CCc1cccc(C2C(C)CCC3C(=O)N4C(CCC(C)C4c4cccc(CC=C)c4)C(=O)N32)c1 (stereo unspecified)
AC50 (Cytochrome P450 2D6): 3.16 µM (inconclusive) | AC50 (Cytochrome P450 3A4): 0.2 µM (inconclusive) | AC50 (Cytochrome P450 2C9): 3.98 µM (inconclusive)

c1ccc2c(C[n+]3csc4ccccc43)cccc2c1
EC50 [4]: 0.898 µM (active) | EC50 (Mucolipin-3): > 29.9 µM (not active) | EC50 [5]: 22.3 µM (active) | EC50 (Ion channel NompC): > 29.9 µM (not active)

O=c1c(/C=N/O)c(Nc2ccccc2)nc2ccccn12
IC50 [6]: > 69.5 µM (not active)

N#C/C(=N\Nc1c(Cl)cccc1Cl)C(=O)NN
IC50 [6]: 28.2 µM (not active) | AC50 [7]: 2.37 µM (active)

O=C1C(Cl)=C(N2CCOCC2)C(=O)N1c1ccccc1Cl
IC50 [8]: > 10 µM (inconclusive) | IC50 (Bcl-2-related protein A1 [9]): 5.83 µM (active) | IC50 (Bcl-2-related protein A1 [10]): > 100 µM (not active) | AC50 [11]: 5.28 µM (active) | EC50 (Protein RecA): 2.09 µM (active) | IC50 (Genome polyprotein): 23.3 µM (active)

O=C(Nc1ccc(-c2nc3ccccc3o2)cc1)c1ccc(N2C(=O)C3C4C=CC(C4)C3C2=O)cc1 (stereo unspecified)
IC50 [1]: 5.35 µM (active) | IC50 [2]: > 111 µM (not active)

O=C1CN(S(=O)(=O)c2ccc(F)cc2)CC(=O)N1CCc1ccccc1
EC50 (Mucolipin-3): 6.15 µM (active) | EC50 (Ion channel NompC): > 29.9 µM (not active)

COC(=O)c1[nH]c2cc(OC)ccc2c1NC(=O)c1ccc2c(c1)OCO2
AC50 [3]: 17.8 µM (active)

C=C(C)C(O)/C=C/c1cccc(OC)c1 (stereo unspecified)
AC50 (Cytochrome P450 2D6): 7.94 µM (inconclusive) | AC50 (Cytochrome P450 2C9): 7.94 µM (inconclusive)

— ChEMBL document CHEMBL1201862, “PubChem BioAssay data set” (2004)
